The results in this text go back to ChEMBL document CHEMBL1649341, “Citrusosides A-D and furanocoumarins with cholinesterase inhibitory activity from the fruit peels of Citrus hystrix” (J Nat Prod, 2010).

As usually defined, the IC50 is the point on the concentration scale where inhibition reaches its midpoint. The term inhibition denotes the relative decrease from the control value, in per cent.

Active and inactive are the calls of the source. The calls are words filed in the database; no cut-off is given here.

Assay [1] deals with Cholinesterase (Equus caballus, UniProt P81908). Put plainly: Inhibition of horse serum BChE after 2 mins by Ellman's reaction. On the technique in general: In Ellman's method for cholinesterases, released thiocholine reacts with DTNB.
Cholinesterase, sequence (P81908 whole entry): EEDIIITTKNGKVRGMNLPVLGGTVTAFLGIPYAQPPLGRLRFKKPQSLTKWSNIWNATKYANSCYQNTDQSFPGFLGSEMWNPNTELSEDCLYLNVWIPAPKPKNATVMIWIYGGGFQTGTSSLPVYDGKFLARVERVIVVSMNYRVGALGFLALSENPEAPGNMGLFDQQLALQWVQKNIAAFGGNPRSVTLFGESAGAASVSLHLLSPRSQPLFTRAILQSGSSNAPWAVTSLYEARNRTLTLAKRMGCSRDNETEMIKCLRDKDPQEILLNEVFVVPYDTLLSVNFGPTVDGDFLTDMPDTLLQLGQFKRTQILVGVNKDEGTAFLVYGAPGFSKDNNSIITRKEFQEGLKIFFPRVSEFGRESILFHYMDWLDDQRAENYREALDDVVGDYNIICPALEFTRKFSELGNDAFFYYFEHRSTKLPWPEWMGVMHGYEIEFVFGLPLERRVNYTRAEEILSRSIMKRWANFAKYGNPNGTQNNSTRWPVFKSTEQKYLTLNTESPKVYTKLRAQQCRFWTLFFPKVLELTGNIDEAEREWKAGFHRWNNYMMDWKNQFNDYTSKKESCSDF
Assay [2] addresses Cholinesterase (Equus caballus) (UniProt P81908). The assay can be described thus: Inhibition of horse serum BChE at 7.2 mM after 2 mins by Ellman's reaction.
For assay [3] the target is unchanged. The assay can be described thus: Inhibition of horse serum BChE at 65.1 uM after 2 mins by Ellman's reaction.
The target is the same in assay [4]. Put plainly: Inhibition of horse serum BChE at 14.8 mM after 2 mins by Ellman's reaction.

Cholinesterase (Equus caballus), sequence (P81908 whole entry): as above

For the molecule `C/C(=C\COc1c2ccoc2cc2oc(=O)ccc12)CC[C@@H](O)C(C)(C)O`, 15.4 µM corresponded to half-maximal inhibition in assay [1] (IC50).

In the case of `CC(C)=CCC[C@@H](C)C/C=C/C(=O)OC[C@H]1O[C@@H](OC(C)C)[C@H](O)[C@@H](O)[C@@H]1O` [CITRUSOSIDE A], in assay [1], the IC50 worked out at 376 µM.

As for `CC(C)O[C@@H]1O[C@H](CO)[C@@H](O)[C@H](OC(=O)CC(C)(O)CC(=O)O[C@H](COc2c3ccoc3cc3oc(=O)ccc23)C(C)(C)O)[C@H]1O` (stereo partly drawn), the inhibition entry in assay [2] is “inactive”.

Regarding `COC(C)(C)[C@H](O)CC/C(C)=C/COc1c2ccoc2cc2oc(=O)ccc12`, the IC50 in assay [1] was found to be 11.2 µM.

Molecule `CC(C)=CCOc1c2ccoc2cc2oc(=O)ccc12` [ISOIMPERATORIN] yielded an IC50 in assay [1] of 23.1 µM.

The molecule `CC(C)(O)[C@H](O)COc1c2ccoc2cc2oc(=O)ccc12` had an inhibition in assay [3] of 24.6%.

The molecule `C/C(=C\COc1c2ccoc2cc2oc(=O)ccc12)CC[C@@H](OC(=O)CC(C)(O)CC(=O)OC[C@H]1O[C@@H](OC(C)C)[C@H](O)[C@@H](O)[C@@H]1O)C(C)(C)O` (stereo partly drawn) [CITRUSOSIDE B] displayed an IC50 in assay [1] of 339 µM.

For `CC(C)=CCC/C(C)=C/COc1c2ccoc2cc2oc(=O)ccc12`, in assay [4], the inhibition result was “inactive”.
